Laboratory results taken from ChEMBL document CHEMBL1909046, “DrugMatrix in vitro pharmacology data”.

Tests used:
[1] = target: 5-hydroxytryptamine receptor 6 (Homo sapiens, UniProt P50406); type: cell membranes, HeLa, Membrane; conditions: hela
Vasopressin V1a receptor = Vasopressin V1a receptor (Homo sapiens, UniProt P37288); type: cell membranes, Membrane; conditions: hek293
[2] = target: C-C chemokine receptor type 5 (Homo sapiens, UniProt P51681); type: cell membranes, HEK293, Membrane; conditions: hek293
Sequence of C-C chemokine receptor type 5 (P51681 whole entry): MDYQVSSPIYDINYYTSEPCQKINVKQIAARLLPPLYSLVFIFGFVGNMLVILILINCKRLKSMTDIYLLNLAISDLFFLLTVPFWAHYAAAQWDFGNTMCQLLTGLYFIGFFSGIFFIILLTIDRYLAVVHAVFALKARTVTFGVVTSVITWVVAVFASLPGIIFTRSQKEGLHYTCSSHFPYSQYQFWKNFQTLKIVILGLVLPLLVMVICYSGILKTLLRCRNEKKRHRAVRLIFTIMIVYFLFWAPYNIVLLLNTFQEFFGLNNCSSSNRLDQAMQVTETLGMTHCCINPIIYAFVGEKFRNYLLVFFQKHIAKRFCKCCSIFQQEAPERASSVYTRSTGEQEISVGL

[3] = target: T1, Polyunsaturated fatty acid lipoxygenase ALOX15 (Oryctolagus cuniculus, UniProt P12530); test: biochemical; type: tissue-based, Reticulocytes; conditions: reticulocytes;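 further: inhibition of 15-lipoxygenase enzyme activity measured with linoleic acid as the substrate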
T1 sequence (P12530 whole entry): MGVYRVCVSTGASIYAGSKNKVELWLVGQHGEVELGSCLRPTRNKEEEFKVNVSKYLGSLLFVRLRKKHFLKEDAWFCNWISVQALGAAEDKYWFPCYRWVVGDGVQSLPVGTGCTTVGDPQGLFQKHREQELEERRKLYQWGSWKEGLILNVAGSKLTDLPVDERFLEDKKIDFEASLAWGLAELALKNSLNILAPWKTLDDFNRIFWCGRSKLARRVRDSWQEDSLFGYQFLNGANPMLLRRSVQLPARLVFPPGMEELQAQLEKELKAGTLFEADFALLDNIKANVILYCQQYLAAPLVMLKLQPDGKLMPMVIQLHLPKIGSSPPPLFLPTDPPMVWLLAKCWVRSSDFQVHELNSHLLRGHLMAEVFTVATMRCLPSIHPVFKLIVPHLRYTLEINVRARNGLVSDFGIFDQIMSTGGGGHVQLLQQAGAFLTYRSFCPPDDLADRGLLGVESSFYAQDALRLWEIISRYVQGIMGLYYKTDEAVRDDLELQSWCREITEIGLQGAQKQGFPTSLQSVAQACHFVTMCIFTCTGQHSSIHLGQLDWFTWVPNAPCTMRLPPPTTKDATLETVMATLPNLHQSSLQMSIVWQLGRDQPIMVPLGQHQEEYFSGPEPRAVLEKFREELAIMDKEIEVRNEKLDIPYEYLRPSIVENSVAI

[4] = target: Tyrosine-protein kinase Fyn (Homo sapiens, UniProt P06241); test: biochemical; type: cell-based, Insect cells; conditions: insect cells;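 further: enzymatic inhibition of Fyn kinase activity measured with Poly(Glu:Tyr) as the phosphorylation substrate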
Sequence of Tyrosine-protein kinase Fyn (P06241 whole entry): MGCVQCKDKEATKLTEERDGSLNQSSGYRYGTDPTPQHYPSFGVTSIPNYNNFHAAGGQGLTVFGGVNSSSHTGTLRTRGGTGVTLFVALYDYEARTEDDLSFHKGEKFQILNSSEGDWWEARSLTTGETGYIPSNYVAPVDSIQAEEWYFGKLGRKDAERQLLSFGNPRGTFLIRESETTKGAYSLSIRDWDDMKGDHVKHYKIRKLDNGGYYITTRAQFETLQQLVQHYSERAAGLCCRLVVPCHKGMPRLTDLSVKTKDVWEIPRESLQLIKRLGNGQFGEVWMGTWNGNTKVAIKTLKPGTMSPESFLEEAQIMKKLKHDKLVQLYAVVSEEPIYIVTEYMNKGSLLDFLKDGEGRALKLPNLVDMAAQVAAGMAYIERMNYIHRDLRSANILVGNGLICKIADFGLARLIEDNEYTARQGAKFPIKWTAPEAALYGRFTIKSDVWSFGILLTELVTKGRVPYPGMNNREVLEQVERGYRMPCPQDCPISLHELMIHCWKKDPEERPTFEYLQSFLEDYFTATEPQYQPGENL

Adenosine receptor A3 = target: T2, Adenosine receptor A3 (Homo sapiens, UniProt P0DMS8); type: cell membranes, CHO-K1, Membrane; conditions: cho-k1;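 further: radioligand binding assay with AB-MECA serving as the labeled ligand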
T2 sequence (P0DMS8 whole entry): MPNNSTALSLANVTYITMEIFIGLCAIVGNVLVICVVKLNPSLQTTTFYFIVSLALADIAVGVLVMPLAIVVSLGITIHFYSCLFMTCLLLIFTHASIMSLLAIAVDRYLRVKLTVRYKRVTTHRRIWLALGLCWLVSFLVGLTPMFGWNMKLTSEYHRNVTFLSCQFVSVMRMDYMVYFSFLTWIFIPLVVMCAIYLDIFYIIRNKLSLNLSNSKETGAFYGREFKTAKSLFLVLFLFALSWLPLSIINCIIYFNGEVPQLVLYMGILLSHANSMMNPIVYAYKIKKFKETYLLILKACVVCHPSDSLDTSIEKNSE

Measured: IC50
Further: in other assays of this panel Not Active means under 50% inhibition at 10 µM.

Sequence of 5-hydroxytryptamine receptor 6 (P50406 whole entry): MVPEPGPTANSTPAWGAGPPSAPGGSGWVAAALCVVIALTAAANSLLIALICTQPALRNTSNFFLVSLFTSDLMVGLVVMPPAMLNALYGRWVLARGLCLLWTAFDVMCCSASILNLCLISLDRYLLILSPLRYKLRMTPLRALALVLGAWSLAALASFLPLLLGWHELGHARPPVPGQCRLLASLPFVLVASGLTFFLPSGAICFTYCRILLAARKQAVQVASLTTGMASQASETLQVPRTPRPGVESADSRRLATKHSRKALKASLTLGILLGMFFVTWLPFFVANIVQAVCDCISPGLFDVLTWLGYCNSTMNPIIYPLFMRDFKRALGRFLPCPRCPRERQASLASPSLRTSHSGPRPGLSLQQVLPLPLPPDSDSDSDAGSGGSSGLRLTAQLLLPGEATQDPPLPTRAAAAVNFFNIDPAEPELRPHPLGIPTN
Sequence of Vasopressin V1a receptor (P37288 whole entry): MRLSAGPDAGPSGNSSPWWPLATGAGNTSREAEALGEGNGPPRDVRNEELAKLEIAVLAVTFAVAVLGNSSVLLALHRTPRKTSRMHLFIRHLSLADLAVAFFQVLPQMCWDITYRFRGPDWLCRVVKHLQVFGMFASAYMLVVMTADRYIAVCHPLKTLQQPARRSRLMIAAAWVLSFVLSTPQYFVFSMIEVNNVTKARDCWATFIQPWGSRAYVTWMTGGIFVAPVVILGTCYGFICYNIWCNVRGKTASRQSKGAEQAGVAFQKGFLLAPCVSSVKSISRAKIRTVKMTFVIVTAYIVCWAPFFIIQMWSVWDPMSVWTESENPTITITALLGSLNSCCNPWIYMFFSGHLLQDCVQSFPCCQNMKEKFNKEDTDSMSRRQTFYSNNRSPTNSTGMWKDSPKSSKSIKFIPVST

O=C1CC[C@@]2(O)[C@H]3Cc4ccc(O)c5c4[C@@]2(CCN3CC2CC2)[C@H]1O5 [NALTREXONE]
Not Active: all assays above

Oc1ccc(/C=C/c2cc(O)cc(O)c2)cc1 [RESVERATROL]
Not Active: all assays above

CC(N)C12CC3CC(CC(C3)C1)C2 (stereo not drawn) [RIMANTADINE]
Not Active: all assays above

CS(=O)(=O)c1ccc(C2=C(c3ccccc3)C(=O)OC2)cc1 [ROFECOXIB]
Not Active: all assays above

C=CCc1ccc2c(c1)OCO2 [SAFROLE]
Not Active: all assays above

CCC(C)(C)C(=O)O[C@H]1C[C@@H](C)C=C2C=C[C@H](C)[C@H](CC[C@@H]3C[C@@H](O)CC(=O)O3)[C@H]21 [SIMVASTATIN]
Not Active: all assays above

O=[As][O-].[Na+] [SODIUM ARSENITE]
Not Active: all assays above

C1CCN2C[C@@H]3C[C@@H](CN4CCCC[C@@H]34)[C@H]2C1 [SPARTEINE]
Not Active: all assays above

C[C@]12CCC(=O)C[C@@H]1CC[C@@H]1[C@@H]2CC[C@]2(C)[C@@H](O)CC[C@@H]12 [STANOLONE]
Not Active: all assays above

Cc1cn([C@H]2C=C[C@@H](CO)O2)c(=O)[nH]c1=O [STAVUDINE]
Not Active: all assays above

CC1(C)[C@H](C(=O)O)N2C(=O)C[C@H]2S1(=O)=O [SULBACTAM]
Not Active: all assays above

Cc1ccnc(NS(=O)(=O)c2ccc(N)cc2)n1 [SULFAMERAZINE]
Not Active: all assays above

Cc1nnc(NS(=O)(=O)c2ccc(N)cc2)s1 [SULFAMETHIZOLE]
Not Active: all assays above
